ChEMBL document CHEMBL3507680, “University of Dundee, Gates Library screen for HepG2 cell viability”

Assay: Human HepG2 cell viability assay in 384 well format
Type: toxicity, cell-based
Set-up: dose 125 nL, time 70.5 hour; cytotoxicity at 70.5 h: concentration not given beside the values
Settings: HepG2 cells, read-out: Inhibition

First: NS(=O)(=O)c1cccnc1Nc1cccc(Cl)c1Cl
Second: Cc1ccccc1Oc1ncccc1CNS(C)(=O)=O
The cytotoxicity at 70.5 h of the first is lower: 3.67% for the first, 19.1% for the second.

Compared with CCc1ncc(C(=O)c2ccc(OC)cc2)n1C, COc1ccc2c(ccn2CCC(=O)O)c1 is higher in cytotoxicity at 70.5 h: 17.9% for the first, 27.9% for the second.

Going from CN(C(=O)c1ccco1)c1nc2c(s1)CCCC2 to O=C1CCCc2nccc(-c3ccccc3)c21, the cytotoxicity at 70.5 h rises from -3.33% to 23.5%.

Compared with CCc1ccc(OCCn2cccn2)cc1, CC(NCc1ccc(OCC(N)=O)cc1)c1ccc(Cl)c(Cl)c1 (centres undefined) is lower in cytotoxicity at 70.5 h: 23.9% for the first, -8.72% for the second.

Going from CNc1cc(-c2cc(OC)c(OC)c(OC)c2)ncn1 to COc1cc(CNC(C)Cn2cccn2)cc(OC)c1OC (centres undefined), the cytotoxicity at 70.5 h falls from -6.66% to -7.54%.

First: Cc1cc(C(=O)NCc2ccccn2)no1
Second: O=C(c1ccon1)N1CCc2ncnc(NCc3ccccn3)c2CC1
The cytotoxicity at 70.5 h of the first is lower: -6.09% for the first, 0.424% for the second.

Going from Cc1cc2nc(CN(C)c3ccccc3)cc(=O)n2o1 to Cc1cc(=O)[nH]c(SCC(=O)N(C)CC2Cc3ccccc3CN2C)n1 (centres undefined), the cytotoxicity at 70.5 h falls from 3.13% to -6.08%.

Compared with Cc1nc(C)c(CN2CCOC(Cc3ccccc3Cl)C2)nc1C (centres undefined), Cc1cc(-c2nn(C)c(Cl)c2CN2CCOC(C(=O)O)C2)no1 (centres undefined) is higher in cytotoxicity at 70.5 h: -2.34% for the first, 13.8% for the second.

First: CC(C)CC(NC(=O)OC(C)(C)C)C(N)=O (centres undefined)
Second: Cc1nc(CCNC(=O)C2CC(=O)N(C(C)(C)C)C2)sc1C (centres undefined)
The cytotoxicity at 70.5 h of the first is higher: 20.5% for the first, -8.11% for the second.

First: Cn1ncc2c1CCCN(C(=O)C1CCCC1)C2
Second: NCc1cn(CC2CCCN(C(=O)CC3=CCCCC3)C2)nn1 (centres undefined)
The cytotoxicity at 70.5 h of the first is higher: -0.407% for the first, -11.9% for the second.

Compared with N#Cc1ncn(CCC(=O)Nc2ccc(Cl)cc2F)n1, O=C(CCC1CCN(Cc2ncc[nH]2)CC1)Nc1ccccc1Cl is lower in cytotoxicity at 70.5 h: -7.28% for the first, -10.7% for the second.

Compared with CC(C)c1ccc(CNC(C)c2ccc(S(C)(=O)=O)cc2)cc1 (centres undefined), CC(=O)Nc1ccc(S(=O)(=O)Nc2c(F)cccc2F)cc1 is higher in cytotoxicity at 70.5 h: -8.82% for the first, 1.02% for the second.

First: Cc1ccc(S(=O)(=O)N2CCN(CCC#N)CC2)s1
Second: CCN1CCN(C(=O)c2ccn(C)c(=O)c2)CC1
The cytotoxicity at 70.5 h of the first is lower: 7.61% for the first, 32.5% for the second.

First: N[C@@H](Cc1ccccc1)c1nnc(S(=O)(=O)Cc2ccccc2)o1
Second: O=C(O)CN1CCc2onc(C(c3ccccc3)c3ccccc3)c2C1
The cytotoxicity at 70.5 h of the first is higher: 15.6% for the first, -3.48% for the second.

Compared with COc1ccnc(NC2CCN(CC(=O)Nc3ccccc3)CC2)n1, N#Cc1ccccc1CN1CCC(c2nccn2CC(N)=O)CC1 is lower in cytotoxicity at 70.5 h: 4.43% for the first, -4.95% for the second.

Compared with CCN(CC)S(=O)(=O)c1ccc(C(=O)NC(C)(C#N)C2CC2)cc1 (centres undefined), CSc1ccc(S(=O)(=O)N2CCCCC2CCNC(C)=O)cc1 (centres undefined) is lower in cytotoxicity at 70.5 h: 19.1% for the first, -9.19% for the second.

Going from O=C(N1CCCCC1)N1CCN(CC(O)c2ccc(F)cc2)CC1 (centres undefined) to O=C(O)C(c1ccc(O)cc1)N1CCC(N2CCSCC2)CC1 (centres undefined), the cytotoxicity at 70.5 h rises from -7.9% to -0.773%.

First: Cc1n[nH]c(=O)c2c(NC(=O)CN3CCOC(C)C3)oc(C)c12 (centres undefined)
Second: CCN1CC(C(=O)N(C)Cc2ccon2)CC1=O (centres undefined)
The cytotoxicity at 70.5 h of the first is lower: 12.5% for the first, 25.3% for the second.

Going from CN(CC(=O)N1CCCC1)C(=O)c1ccccc1Nc1ccccc1 to O=C(COCc1ccccc1)N1CCN(c2ccc(Cl)cn2)CC1, the cytotoxicity at 70.5 h falls from 18.3% to -4.29%.

Going from CC(C)N1CCCC(C(=O)N(C)CCCc2cnn(C)c2)C1 (centres undefined) to CN(C)CCN(C)C(=O)c1cn(CC2CCCCC2)nn1, the cytotoxicity at 70.5 h falls from -2.41% to -18.4%.

First: Cc1cn(CC(=O)Nc2cc(C(C)C)nn2C)cn1
Second: Cc1cc(NCc2ccc(O)cc2)n2nc(C)cc2n1
The cytotoxicity at 70.5 h of the first is lower: -10.1% for the first, -2.08% for the second.

Compared with Cc1cc(N2CCC(c3ncc[nH]3)CC2)nc(N)n1, Cc1ccc(C#N)c(N2CCC(c3nccn3Cc3cscn3)CC2)n1 is lower in cytotoxicity at 70.5 h: -2.19% for the first, -8.13% for the second.

Going from Cc1cccc2cc(CN3CCCN4CCC[C@H]4C3)c(=O)[nH]c12 to CC(C)(CNC1CCCN(Cc2ccccc2F)C1)CN1CCOCC1 (centres undefined), the cytotoxicity at 70.5 h falls from 1.79% to -15.7%.

Going from CCCc1noc(-c2cn(CC(=O)N(CC)CC)nn2)n1 to Cc1nn(CCC#N)c(C)c1CCC(=O)N(C)C, the cytotoxicity at 70.5 h rises from -4.55% to 13.3%.

Going from CCc1cccc(CC)c1NC(=O)c1ccccc1N(C)S(C)(=O)=O to COc1cc(C(=O)O)cc(I)c1OCC(=O)NCCc1ccccc1, the cytotoxicity at 70.5 h rises from -8.14% to -4.57%.

Going from O=C(CO)N1CCCC2(CCC(=O)N(CC3CC3)C2)C1 (centres undefined) to CN1CCCC2(CCN(C(=O)CCn3cncn3)C2)C1=O (centres undefined), the cytotoxicity at 70.5 h rises from -11% to -10.5%.

Going from COCc1nc(N2CCC(CCO)CC2)c2cnn(C)c2n1 to CCc1nnc(CN(C)c2nc(C3CCCC3)nc3c2cnn3C)o1, the cytotoxicity at 70.5 h falls from 2.73% to -6.42%.

First: COc1ccc2c(=O)n(CC3CC3)ccc2c1OC
Second: COc1ccc(C2CC(=O)c3c(O)cc(O)cc3O2)cc1O (centres undefined)
The cytotoxicity at 70.5 h of the first is higher: 2.47% for the first, -9.21% for the second.

First: CCOCc1nc2c(c(NCCNC(C)=O)n1)CCN(C(C)=O)CC2
Second: COCCNc1nc2c(c(NCc3ccncc3)n1)CCNCC2
The cytotoxicity at 70.5 h of the first is higher: 16.6% for the first, -7.33% for the second.

First: CCCN1CCN(C(=O)c2cnccc2C)[C@H]2CS(=O)(=O)C[C@H]21
Second: N#Cc1ccc(CN2CCN(C(=O)C3CCC3)[C@@H]3CS(=O)(=O)C[C@@H]32)cc1
The cytotoxicity at 70.5 h of the first is higher: -3.96% for the first, -6.79% for the second.

Compared with O=C(CN1CCCC1c1nc(-c2ccccc2)no1)N1CCOCC1 (centres undefined), CC(=O)N1CCCC1c1ccc(C(=O)N2CCOCC2)s1 (centres undefined) is higher in cytotoxicity at 70.5 h: -4.9% for the first, 14.5% for the second.

Compared with COc1cc2c(cc1OC)CN(C(C(=O)O)c1c(C)nn(C)c1C)CC2 (centres undefined), Cc1ccc(C)c(C(C(=O)O)N2CCCN(Cc3ccccn3)CC2)c1 (centres undefined) is lower in cytotoxicity at 70.5 h: -6.71% for the first, -8.23% for the second.

Going from O=C(CCC1CCCC1)N1C[C@H]2CC[C@@H]1CN(Cc1ccncc1)C2 to Cc1nc[nH]c1CN1C[C@@H]2CC[C@H](C1)N(C(=O)CCNS(C)(=O)=O)C2, the cytotoxicity at 70.5 h rises from -11.9% to -1.67%.

First: O=c1[nH]c(NCc2cccc(-c3ccccc3)c2)nc2c1CCNC2
Second: c1ccc(-c2noc3c2CN(CC2CC2)CC3)cc1
The cytotoxicity at 70.5 h of the first is lower: -21% for the first, -3.25% for the second.

First: CC(C)(C)CN1CCCC2(CCN(C(=O)c3cn[nH]c3)C2)C1 (centres undefined)
Second: O=C(c1cncc(N2CCC(O)(CO)CC2)n1)N1CCCC1
The cytotoxicity at 70.5 h of the first is higher: -9.2% for the first, -9.52% for the second.

Going from Cc1ccc2c(C)c(C(=O)NCc3csc(N)n3)oc2c1 to Cc1ccc2nc(C)c(C)c(C(=O)NCCCn3ccnn3)c2c1, the cytotoxicity at 70.5 h rises from -13% to 3.79%.

First: CCn1cnnc1CCNc1nc(C)cc(C)c1C#N
Second: Cc1cc(NCc2cccnc2)n2nc(C)cc2n1
The cytotoxicity at 70.5 h of the first is higher: 27.1% for the first, -8.91% for the second.

Compared with CS(=O)(=O)N1CCc2[nH]cnc2C12CCN(C(=O)c1ccccc1)CC2, COCC1CCN(C(=O)c2cccc(S(=O)(=O)NC3CCCC3)c2)C1 (centres undefined) is lower in cytotoxicity at 70.5 h: -1.52% for the first, -6.74% for the second.

First: Cc1csc2c(N3CCC(NCCCc4ccncc4)CC3)ncnc12
Second: N#Cc1ccnc(N2CCC(c3nccn3Cc3cscn3)CC2)c1
The cytotoxicity at 70.5 h of the first is lower: -7.45% for the first, 31.3% for the second.

Going from O=C1[C@H]2CC[C@H](CN(C3CSCCSC3)C2)N1Cc1cscn1 to Cc1ccc(NC(=O)N2C[C@H]3CC[C@@H]2CN(Cc2cscn2)C3)cc1, the cytotoxicity at 70.5 h rises from -7.49% to -6.47%.

Going from CCc1nc(C)c(C(=O)N2C[C@H]3CC[C@@H]2CN(S(=O)(=O)N(C)C)C3)s1 to CN(C)Cc1ccc(C2CCCCN2C(=O)c2cc(C3CC3)n[nH]2)cc1 (centres undefined), the cytotoxicity at 70.5 h falls from 8.88% to -5%.

Compared with CC(C)(CO)NC(=O)C1CCC(=O)N(Cc2ccc(Cl)cc2)C1 (centres undefined), CN(C)c1ccc(CC(=O)N[C@@H]2CCNC[C@H]2O)cc1 is higher in cytotoxicity at 70.5 h: -8.51% for the first, -3.58% for the second.

First: CN(Cc1ccccc1)CC1(O)CCCN(CC(C)(C)C)C1=O (centres undefined)
Second: CC(CCN1CCn2nc(CNC(=O)N(C)C)cc2C1)c1ccccc1 (centres undefined)
The cytotoxicity at 70.5 h of the first is higher: -3.59% for the first, -6.81% for the second.

Going from Cn1nc(C(=O)N2CCCCC2c2nc3cc(F)ccc3[nH]2)ccc1=O (centres undefined) to Fc1ccc2[nH]c(C3CCCN3CCc3ccccn3)nc2c1 (centres undefined), the cytotoxicity at 70.5 h falls from 6.51% to -8.26%.

Going from CCCc1nc(C(=O)N2CCCn3nc(CCC(=O)O)cc3C2)cs1 to O=C(CCc1ccccc1)C1CCCN(C(=O)c2ncc(F)cc2F)C1 (centres undefined), the cytotoxicity at 70.5 h rises from -9.99% to -3.9%.

First: CSc1ccccc1C(C(=O)O)N1CCN(Cc2ccccn2)CC1 (centres undefined)
Second: O=C(c1ccc[nH]1)N1CCC(c2nccn2Cc2ccncc2)CC1
The cytotoxicity at 70.5 h of the first is higher: 17% for the first, -0.778% for the second.

Going from Cc1nc(CN2CCCC(CCc3ccc(F)cc3F)C2)c[nH]1 (centres undefined) to CC(C)n1ccnc1C1CCN(Cc2ccc(Cl)c(F)c2)CC1, the cytotoxicity at 70.5 h falls from -1.86% to -5.05%.

Going from O=C(O)[C@@H]1CN(C(=O)c2cc(C3CC3)n[nH]2)C[C@H]1c1cccc(F)c1 to COc1cccc(OCc2cc(C(=O)NC[C@H]3CCCN3)n[nH]2)c1, the cytotoxicity at 70.5 h rises from -9.94% to -4.69%.

Compared with Cn1ccnc1CN1C[C@@H](CN2CCC(CO)CC2)[C@@H](CO)C1, CCC(=O)N1CCC(c2nnc(Cn3cccn3)n2C2CC2)CC1 is higher in cytotoxicity at 70.5 h: -7.99% for the first, -6.95% for the second.

Compared with CN1CCCC1c1ccc(C(=O)N2CCc3ccccc3C2)s1 (centres undefined), COc1cccc2c1OCC(C(=O)N1CCC(N3CCOC3=O)CC1)C2 (centres undefined) is lower in cytotoxicity at 70.5 h: 17.6% for the first, -8.52% for the second.

Going from C[C@@H]1CN(C(=O)c2cnc(C3CC3)nc2)CC[C@@]1(O)C1CCOCC1 to Cc1nc(C2CCN(C(=O)CO)CC2)cc(N2CCOCC2)n1, the cytotoxicity at 70.5 h rises from -8.12% to -7.87%.

Going from COCc1nc(CN2CCC3(CCCO3)CCC2=O)no1 (centres undefined) to Clc1ccccc1C1(c2ccnc(CC3CC3)n2)CCNCC1, the cytotoxicity at 70.5 h rises from -7.37% to 4.53%.

First: CCOCCC(=O)N1CCCC(c2ncc[nH]2)C1 (centres undefined)
Second: Cc1[nH]ccc1C(=O)N1CCC(c2nnc(Cn3cccn3)n2C)CC1
The cytotoxicity at 70.5 h of the first is higher: -0.67% for the first, -0.908% for the second.

First: O=C(c1cccnc1O)N(Cc1ccsc1)CC1CCCO1 (centres undefined)
Second: CN(CCO)Cc1nnc(C2CCN(C(=O)c3cccnc3)CC2)n1C
The cytotoxicity at 70.5 h of the first is higher: 8.65% for the first, -10.6% for the second.

Going from c1cc(-c2cnccn2)cc(-c2ccn(CCN3CCCC3)n2)c1 to CC(NCc1cnc(N2CCOCC2)nc1)c1ccc(Cl)s1 (centres undefined), the cytotoxicity at 70.5 h falls from 12.2% to -9.24%.

Compared with CC[C@@H](CO)NC(=O)c1coc(COc2ccc(OC)cc2)n1, CNCCc1nc2cc(Cl)ccc2[nH]1 is higher in cytotoxicity at 70.5 h: -13% for the first, 16.5% for the second.

Going from Cc1cc(C(=O)N[C@@H]2CCNC[C@H]2O)ccc1Cl to COc1cc2c(cc1CNCc1cccnc1-n1cccn1)OC(C)C2 (centres undefined), the cytotoxicity at 70.5 h rises from -6.34% to 16.8%.
